Assays:
[1] = target: HDAC1 (Homo sapiens (Human), UniProt Q13547); test: HDAC1 enzymatic assay; format: biochemical; conditions: read-out: Human HDAC1 IC50
Procedure: (§1) All enzymatic reactions were conducted in duplicate at room temperature for 17 hours in a 50 μl mixture containing HDAC assay buffer (50 mM Tris-HCl, pH 7.4, 137 mM NaCl, 2.7 mM KCl, 0.05% Tween 20, 5 μg BSA), an HDAC substrate, an HDAC enzyme, and a test compound. Compound dilution was prepared ten-fold higher than the final concentration of the compounds with 10% DMSO in HDAC assay buffer and 5 μl of the dilution was added to a 50 μl reaction so that the final concentration of DMSO is 1% in all of reactions. After enzymatic reactions, 50 μl of HDAC Developer was added to each well and the plate was incubated at room temperature for an additional 20 minutes. Fluorescence intensity was measured at an excitation of 360 nm and an emission of 460 nm using a Tecan Infinite M1000 or Biotek Synergy microplate reader.
(§2) The fluorescent intensity data were analyzed using the computer software, Graphpad Prism. In the absence of the compound, the fluorescent intensity (Ft) in each data set was defined as 100% activity. In the absence of HDAC, the fluorescent intensity (Fb) in each data set was defined as 0% activity. The percent activity in the presence of each compound was calculated according to the following equation: % activity=(F−Fb)/(Ft−Fb), where F=the fluorescent intensity in the presence of the compound.
(§3) The values of % activity versus a series of compound concentrations were then plotted using non-linear regression analysis of Sigmoidal dose-response curve generated with the equation Y=B+(T−B)/1+10((Log EC50−X)×Hill Slope), where Y=percent activity, B=minimum percent activity, T=maximum percent activity, X=logarithm of compound and Hill Slope=slope factor or Hill coefficient. The IC50 value was determined by the concentration causing a half-maximal percent activity.
(§4) HDAC1 enzymatic assays contained 0.5 ng HDAC1 and 10 uM of HDAC substrate. HDAC2 enzymatic assays contained 0.5 ng HDAC2 and 10 uM of HDAC substrate. HDAC3 enzymatic assays contained 0.4 ng HDAC3/NCOR2 and 10 uM of HDAC substrate. HDAC4 enzymatic assays contained 0.02 ng HDAC4 and 2 uM of HDAC substrate. HDAC5 enzymatic assays contained 0.5 ng HDAC5 and 2 uM of HDAC substrate. HDAC6 enzymatic assays contained 2 ng HDAC6 and 10 uM of HDAC substrate. HDAC7 enzymatic assays contained 0.05 ng HDAC7 and 2 uM of HDAC substrate. HDAC8 enzymatic assays contained 5 ng HDAC8 and 2 uM of HDAC substrate. HDAC9 enzymatic assays contained 1 ng HDAC9 and 2 uM of HDAC substrate. HDAC10 enzymatic assays contained 75 ng HDAC10 and 10 uM of HDAC substrate. HDAC11 enzymatic assays contained 5 ng HDAC11 and 2 uM of HDAC substrate.

[2] = target: HDAC6 (Homo sapiens (Human), UniProt Q9UBN7); test: HDAC6 enzymatic assay; format: biochemical; conditions: read-out: Human HDAC6 IC50
Chain of HDAC6 (Q9UBN7 whole entry): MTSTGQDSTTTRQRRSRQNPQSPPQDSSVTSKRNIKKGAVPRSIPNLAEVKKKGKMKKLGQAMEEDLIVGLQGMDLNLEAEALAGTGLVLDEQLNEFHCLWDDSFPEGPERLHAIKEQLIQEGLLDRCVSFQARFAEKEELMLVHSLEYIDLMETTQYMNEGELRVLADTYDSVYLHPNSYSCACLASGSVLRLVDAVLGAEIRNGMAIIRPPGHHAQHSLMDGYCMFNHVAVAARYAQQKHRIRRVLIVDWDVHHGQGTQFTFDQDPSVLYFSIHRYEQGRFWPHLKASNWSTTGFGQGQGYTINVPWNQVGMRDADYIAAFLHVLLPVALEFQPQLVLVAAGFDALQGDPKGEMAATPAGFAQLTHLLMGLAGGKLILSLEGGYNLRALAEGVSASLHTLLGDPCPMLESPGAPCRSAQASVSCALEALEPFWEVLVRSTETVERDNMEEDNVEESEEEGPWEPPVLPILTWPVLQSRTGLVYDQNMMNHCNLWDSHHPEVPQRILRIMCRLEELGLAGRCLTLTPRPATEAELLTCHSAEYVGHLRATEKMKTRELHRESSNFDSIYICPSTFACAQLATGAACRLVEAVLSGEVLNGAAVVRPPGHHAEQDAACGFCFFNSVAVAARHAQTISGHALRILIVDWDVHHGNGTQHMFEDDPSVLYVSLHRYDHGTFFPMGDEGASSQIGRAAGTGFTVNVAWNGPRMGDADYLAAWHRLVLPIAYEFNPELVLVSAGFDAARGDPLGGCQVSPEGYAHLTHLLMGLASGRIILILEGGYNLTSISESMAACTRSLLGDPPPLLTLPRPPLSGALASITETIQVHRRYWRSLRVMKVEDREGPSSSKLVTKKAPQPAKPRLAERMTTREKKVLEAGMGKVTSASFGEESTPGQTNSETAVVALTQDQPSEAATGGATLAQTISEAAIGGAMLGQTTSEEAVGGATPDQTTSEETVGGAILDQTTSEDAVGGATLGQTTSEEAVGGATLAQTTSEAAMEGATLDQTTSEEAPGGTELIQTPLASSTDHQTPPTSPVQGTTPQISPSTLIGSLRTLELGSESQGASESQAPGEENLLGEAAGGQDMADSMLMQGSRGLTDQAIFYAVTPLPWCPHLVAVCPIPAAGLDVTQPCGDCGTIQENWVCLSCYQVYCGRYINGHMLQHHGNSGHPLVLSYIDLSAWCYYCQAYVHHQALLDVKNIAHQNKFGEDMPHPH
Procedure: as §1, §2, §3, §4

Chain of HDAC1 (Q13547 whole entry): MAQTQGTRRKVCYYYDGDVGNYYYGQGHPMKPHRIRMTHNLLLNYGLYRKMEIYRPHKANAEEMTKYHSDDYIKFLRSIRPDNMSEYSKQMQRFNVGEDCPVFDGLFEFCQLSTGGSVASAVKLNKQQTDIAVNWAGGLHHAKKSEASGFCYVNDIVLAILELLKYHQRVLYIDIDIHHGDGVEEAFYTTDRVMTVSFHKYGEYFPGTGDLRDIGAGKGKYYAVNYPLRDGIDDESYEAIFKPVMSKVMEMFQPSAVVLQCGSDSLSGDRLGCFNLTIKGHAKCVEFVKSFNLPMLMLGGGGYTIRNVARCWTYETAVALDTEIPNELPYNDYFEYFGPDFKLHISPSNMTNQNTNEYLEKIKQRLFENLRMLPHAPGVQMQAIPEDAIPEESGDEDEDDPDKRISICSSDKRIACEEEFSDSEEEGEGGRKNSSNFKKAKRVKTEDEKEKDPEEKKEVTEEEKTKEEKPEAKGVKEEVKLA

| IC50 [1] [nM] | IC50 [2] [nM] | SMILES |
| --- | --- | --- |
| > 30000 | 160 | Fc1ccc(C(Cn2cnc(C(F)(F)F)c2)Nc2ncc(-c3nnc(C(F)F)o3)cn2)cc1 (single isomer, unassigned) [175(+), 5-(5-(difluoromethyl)-1,3,4-oxadiazol-2-yl)-N-(1-(4-fluorophenyl)-2-(4-(trifluoromethyl)-1H-imidazol-1-yl)ethyl)pyrimidin-2-amine] |
| > 30000 | 1500 | Fc1ccc(C(Cn2cnc(C(F)(F)F)c2)Nc2ncc(-c3nnc(C(F)F)o3)cn2)cc1 (single isomer, unassigned) [175(−), 5-(5-(difluoromethyl)-1,3,4-oxadiazol-2-yl)-N-(1-(4-fluorophenyl)-2-(4-(trifluoromethyl)-1H-imidazol-1-yl)ethyl)pyrimidin-2-amine] |
| > 30000 | 160 | Fc1ccc(C(Cn2cc(C(F)(F)F)cn2)Nc2ncc(-c3nnc(C(F)F)o3)cn2)cc1 (single isomer, unassigned) [176(+), 5-(5-(difluoromethyl)-1,3,4-oxadiazol-2-yl)-N-(1-(4-fluorophenyl)-2-(4-(trifluoromethyl)-1H-pyrazol-1-yl)ethyl)pyrimidin-2-amine] |
| > 30000 | 1500 | Fc1ccc(C(Cn2cc(C(F)(F)F)cn2)Nc2ncc(-c3nnc(C(F)F)o3)cn2)cc1 (single isomer, unassigned) [176(−), 5-(5-(difluoromethyl)-1,3,4-oxadiazol-2-yl)-N-(1-(4-fluorophenyl)-2-(4-(trifluoromethyl)-1H-pyrazol-1-yl)ethyl)pyrimidin-2-amine] |
| > 30000 | 110 | O=C1CCCN1CC(Nc1ncc(-c2nnc(C(F)F)o2)cn1)c1ccc(F)cc1 (single isomer, unassigned) [177(+), 1-(2-((5-(5-(difluoromethyl)-1,3,4-oxadiazol-2-yl)pyrimidin-2-yl)amino)-2-(4-fluorophenyl)ethyl)pyrrolidin-2-one] |
| > 30000 | 76 | O=C1CCCN1CC(Nc1ncc(-c2nnc(C(F)F)o2)cn1)c1ccc(F)cc1 (single isomer, unassigned) [177(−), 1-(2-((5-(5-(difluoromethyl)-1,3,4-oxadiazol-2-yl)pyrimidin-2-yl)amino)-2-(4-fluorophenyl)ethyl)pyrrolidin-2-one] |
| > 30000 | 45 | CC(NS(C)(=O)=O)C(Nc1ncc(-c2nnc(C(F)F)o2)cn1)c1ccc(F)cc1 (single isomer, unassigned) [Example 127A, N-(1-((5-(5-(difluoromethyl)-1,3,4-oxadiazol-2-yl)pyrimidin-2-yl)amino)-1-(4-fluorophenyl)propan-2-yl)methanesulfonamide] |
| > 30000 | 49 | CC(NS(C)(=O)=O)C(Nc1ncc(-c2nnc(C(F)F)o2)cn1)c1ccc(F)cc1 (single isomer, unassigned) [Example 127B, N-(1-((5-(5-(difluoromethyl)-1,3,4-oxadiazol-2-yl)pyrimidin-2-yl)amino)-1-(4-fluorophenyl)propan-2-yl)methanesulfonamide] |
| > 30000 | 220 | Fc1ccc(C(COC2CC2)Nc2ncc(-c3nnc(C(F)F)o3)cn2)c(F)c1 (single isomer, unassigned) [Example 134A, N-(2-cyclopropoxy-1-(2,4-difluorophenyl)ethyl)-5-(5-(difluoromethyl)-1,3,4-oxadiazol-2-yl)pyrimidin-2-amine] |
| > 30000 | 30 | Fc1ccc(C(CC(F)(F)F)Nc2ncc(-c3nnc(C(F)F)o3)cn2)cc1 (single isomer, unassigned; (+)) [13(+), (+)-5-(5-(difluoromethyl)-1,3,4-oxadiazol-2-yl)-N-(3,3,3-trifluoro-1-(4-fluorophenyl)propyl)pyrimidin-2-amine] |
| > 30000 | 21 | CC(Nc1ncc(-c2nnc(C(F)F)o2)cn1)c1ccc(F)cc1 (single isomer, unassigned; (+)) [20(+), (+)-5-(5-(difluoromethyl)-1,3,4-oxadiazol-2-yl)-N-(1-(4-fluorophenyl)ethyl)pyrimidin-2-amine] |
| > 30000 | 30 | CC(Nc1ncc(-c2nnc(C(F)F)o2)cn1)c1c(F)cccc1F (single isomer, unassigned; (+)) [100(+), (+)-5-(5-(difluoromethyl)-1,3,4-oxadiazol-2-yl)-N-(1-(2,6-difluorophenyl)ethyl)pyrimidin-2-amine] |
| > 30000 | 37 | O=S1(=O)CCCN1CC(Nc1ncc(-c2nnc(C(F)F)o2)cn1)c1ccc(F)cc1 (single isomer, unassigned; (+)) [120(+), (+)-2-(2-((5-(5-(difluoromethyl)-1,3,4-oxadiazol-2-yl)pyrimidin-2-yl)amino)-2-(4-fluorophenyl)ethyl)isothiazolidine 1,1-dioxide] |
| > 30000 | 550 | Fc1ccc(C(CC(F)(F)F)Nc2ncc(-c3nnc(C(F)F)o3)cn2)cc1 (single isomer, unassigned; (-)) [13(−), (−)-5-(5-(difluoromethyl)-1,3,4-oxadiazol-2-yl)-N-(3,3,3-trifluoro-1-(4-fluorophenyl)propyl)pyrimidin-2-amine] |
| > 30000 | > 1000 | CC(Nc1ncc(-c2nnc(C(F)F)o2)cn1)c1ccc(F)cc1 (single isomer, unassigned; (-)) [20(−), (−)-5-(5-(difluoromethyl)-1,3,4-oxadiazol-2-yl)-N-(1-(4-fluorophenyl)ethyl)pyrimidin-2-amine] |
| > 30000 | > 1000 | CC(Nc1ncc(-c2nnc(C(F)F)o2)cn1)c1c(F)cccc1F (single isomer, unassigned; (-)) [100(−), (−)-5-(5-(difluoromethyl)-1,3,4-oxadiazol-2-yl)-N-(1-(2,6-difluorophenyl)ethyl)pyrimidin-2-amine] |
| > 30000 | 150 | O=S1(=O)CCCN1CC(Nc1ncc(-c2nnc(C(F)F)o2)cn1)c1ccc(F)cc1 (single isomer, unassigned; (-)) [120(−), (−)-2-(2-((5-(5-(difluoromethyl)-1,3,4-oxadiazol-2-yl)pyrimidin-2-yl)amino)-2-(4-fluorophenyl)ethyl)isothiazolidine 1,1-dioxide] |
| > 30000 | 75 | CS(=O)(=O)N(CC(Nc1ncc(-c2nnc(C(F)F)o2)cn1)c1ccc(F)cc1F)CC(F)(F)F (stereo not drawn) [138(+), N-(2-((5-(5-(difluoromethyl)-1,3,4-oxadiazol-2-yl)pyrimidin-2-yl)amino)-2-(2,4-difluorophenyl)ethyl)-N-(2,2,2-trifluoroethyl)methanesulfonamide] |
| > 30000 | 58 | CCS(=O)(=O)N(C)CC(Nc1ncc(-c2nnc(C(F)F)o2)cn1)c1ccc(F)cc1F (stereo not drawn) [140(+), N-(2-((5-(5-(difluoromethyl)-1,3,4-oxadiazol-2-yl)pyrimidin-2-yl)amino)-2-(2,4-difluorophenyl)ethyl)-N-methylethanesulfonamide] |
| > 30000 | 130 | CCS(=O)(=O)N(CC(Nc1ncc(-c2nnc(C(F)F)o2)cn1)c1ccc(F)cc1F)CC(F)(F)F (stereo not drawn) [141(+), N-(2-((5-(5-(difluoromethyl)-1,3,4-oxadiazol-2-yl)pyrimidin-2-yl)amino)-2-(2,4-difluorophenyl)ethyl)-N-(2,2,2-trifluoroethyl)ethanesulfonamide] |
| > 30000 | 53 | CN(CC(Nc1ncc(-c2nnc(C(F)F)o2)cn1)c1ccc(F)cc1F)S(=O)(=O)C1CC1 (stereo not drawn) [143(+), N-(2-((5-(5-(difluoromethyl)-1,3,4-oxadiazol-2-yl)pyrimidin-2-yl)amino)-2-(2,4-difluorophenyl)ethyl)-N-methylcyclopropanesulfonamide] |
| > 30000 | 160 | O=S(=O)(C1CC1)N(CC(Nc1ncc(-c2nnc(C(F)F)o2)cn1)c1ccc(F)cc1F)CC(F)(F)F (stereo not drawn) [144(+), N-(2-((5-(5-(difluoromethyl)-1,3,4-oxadiazol-2-yl)pyrimidin-2-yl)amino)-2-(2,4-difluorophenyl)ethyl)-N-(2,2,2-trifluoroethyl)cyclopropanesulfonamide] |
